Assay results taken from ChEMBL document CHEMBL1667852, “Isosteric replacement of the Z-enone with haloethyl ketone and E-enone in a resorcylic acid lactone series and biological evaluation” (Bioorg Med Chem Lett, 2011).
Activity calls are given as the source filed them. The calls are words filed in the database; no cut-off is given here.

Assays:
[1] = biological target: Platelet-derived growth factor receptor alpha (Homo sapiens, UniProt P16234); assay: Inhibition of human recombinant PDGFRalpha in cell free system after 60 mins
[2] = biological target: Platelet-derived growth factor receptor beta (Homo sapiens, UniProt P09619); assay: Inhibition of human recombinant PDGFRbeta expressed in insect cells after 30 mins
Chain of Platelet-derived growth factor receptor beta (P09619 whole entry): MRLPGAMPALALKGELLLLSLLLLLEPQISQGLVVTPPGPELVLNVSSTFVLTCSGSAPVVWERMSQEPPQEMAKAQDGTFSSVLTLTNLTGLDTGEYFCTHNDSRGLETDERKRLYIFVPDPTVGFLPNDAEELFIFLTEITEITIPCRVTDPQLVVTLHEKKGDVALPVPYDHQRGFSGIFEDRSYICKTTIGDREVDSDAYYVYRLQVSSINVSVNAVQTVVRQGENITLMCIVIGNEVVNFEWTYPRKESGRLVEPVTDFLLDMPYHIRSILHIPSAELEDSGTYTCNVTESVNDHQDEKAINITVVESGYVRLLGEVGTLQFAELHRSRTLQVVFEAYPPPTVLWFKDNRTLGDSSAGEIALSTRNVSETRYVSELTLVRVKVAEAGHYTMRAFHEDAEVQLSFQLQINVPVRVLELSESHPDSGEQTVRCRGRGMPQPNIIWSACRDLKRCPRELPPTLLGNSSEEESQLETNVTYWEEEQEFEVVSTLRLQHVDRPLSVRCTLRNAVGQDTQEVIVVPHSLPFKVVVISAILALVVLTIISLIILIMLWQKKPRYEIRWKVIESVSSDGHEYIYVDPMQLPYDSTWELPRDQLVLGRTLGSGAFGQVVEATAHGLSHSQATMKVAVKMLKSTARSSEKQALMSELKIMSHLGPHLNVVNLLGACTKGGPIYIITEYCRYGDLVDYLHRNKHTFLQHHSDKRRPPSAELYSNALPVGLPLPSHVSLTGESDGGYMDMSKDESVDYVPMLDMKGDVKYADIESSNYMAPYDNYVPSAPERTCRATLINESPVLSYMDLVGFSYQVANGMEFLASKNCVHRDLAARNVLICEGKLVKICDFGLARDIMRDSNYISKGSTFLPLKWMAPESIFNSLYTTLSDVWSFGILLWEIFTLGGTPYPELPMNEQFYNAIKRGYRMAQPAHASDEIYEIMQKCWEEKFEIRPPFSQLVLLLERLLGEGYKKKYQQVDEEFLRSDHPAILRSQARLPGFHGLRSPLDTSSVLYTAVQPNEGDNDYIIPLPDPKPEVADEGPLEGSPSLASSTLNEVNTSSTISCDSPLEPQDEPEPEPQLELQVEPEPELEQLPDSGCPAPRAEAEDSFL

[3] = biological target: Mast/stem cell growth factor receptor Kit (Homo sapiens, UniProt P10721); assay: Inhibition of human recombinant c-kit kinase in cell free system after 30 mins
[4] = biological target: Vascular endothelial growth factor receptor 1 (Homo sapiens, UniProt P17948); assay: Inhibition of human recombinant VEGFR1 expressed in Sf9 cells after 10 mins
[5] = biological target: T1, Receptor-type tyrosine-protein kinase FLT3 (Homo sapiens, UniProt P36888); assay: Inhibition of human recombinant FLT-3 kinase expressed in insect cells after 90 mins
T1 sequence (P36888 whole entry): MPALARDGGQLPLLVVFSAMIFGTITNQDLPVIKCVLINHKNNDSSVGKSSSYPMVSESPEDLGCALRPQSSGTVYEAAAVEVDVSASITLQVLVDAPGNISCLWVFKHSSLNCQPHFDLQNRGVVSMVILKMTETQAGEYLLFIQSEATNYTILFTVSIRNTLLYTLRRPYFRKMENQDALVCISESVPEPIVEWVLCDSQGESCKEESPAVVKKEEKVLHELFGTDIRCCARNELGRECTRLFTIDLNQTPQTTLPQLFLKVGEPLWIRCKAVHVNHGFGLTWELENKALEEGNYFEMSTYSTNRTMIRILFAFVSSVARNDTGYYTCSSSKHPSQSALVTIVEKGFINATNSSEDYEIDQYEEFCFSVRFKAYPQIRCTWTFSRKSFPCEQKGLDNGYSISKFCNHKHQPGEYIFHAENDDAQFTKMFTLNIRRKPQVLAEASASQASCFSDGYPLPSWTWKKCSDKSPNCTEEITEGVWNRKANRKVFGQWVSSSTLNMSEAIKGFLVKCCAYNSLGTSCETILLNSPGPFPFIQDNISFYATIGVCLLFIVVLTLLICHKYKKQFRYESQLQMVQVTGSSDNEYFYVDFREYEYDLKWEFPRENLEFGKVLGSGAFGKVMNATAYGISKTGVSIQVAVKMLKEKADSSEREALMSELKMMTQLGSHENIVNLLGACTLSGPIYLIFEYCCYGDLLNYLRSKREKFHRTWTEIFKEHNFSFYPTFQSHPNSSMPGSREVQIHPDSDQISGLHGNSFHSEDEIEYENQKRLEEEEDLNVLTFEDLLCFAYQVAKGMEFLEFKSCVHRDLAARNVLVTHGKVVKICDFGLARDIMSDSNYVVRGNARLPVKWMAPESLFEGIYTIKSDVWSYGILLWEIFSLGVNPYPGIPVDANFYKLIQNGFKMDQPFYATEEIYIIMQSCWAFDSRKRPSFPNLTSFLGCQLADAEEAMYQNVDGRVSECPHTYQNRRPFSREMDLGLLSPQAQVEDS

[6] = biological target: Vascular endothelial growth factor receptor 3 (Homo sapiens, UniProt P35916); assay: Inhibition of human recombinant VEGFR3 in cell free system after 90 mins
Chain of Vascular endothelial growth factor receptor 3 (P35916 whole entry): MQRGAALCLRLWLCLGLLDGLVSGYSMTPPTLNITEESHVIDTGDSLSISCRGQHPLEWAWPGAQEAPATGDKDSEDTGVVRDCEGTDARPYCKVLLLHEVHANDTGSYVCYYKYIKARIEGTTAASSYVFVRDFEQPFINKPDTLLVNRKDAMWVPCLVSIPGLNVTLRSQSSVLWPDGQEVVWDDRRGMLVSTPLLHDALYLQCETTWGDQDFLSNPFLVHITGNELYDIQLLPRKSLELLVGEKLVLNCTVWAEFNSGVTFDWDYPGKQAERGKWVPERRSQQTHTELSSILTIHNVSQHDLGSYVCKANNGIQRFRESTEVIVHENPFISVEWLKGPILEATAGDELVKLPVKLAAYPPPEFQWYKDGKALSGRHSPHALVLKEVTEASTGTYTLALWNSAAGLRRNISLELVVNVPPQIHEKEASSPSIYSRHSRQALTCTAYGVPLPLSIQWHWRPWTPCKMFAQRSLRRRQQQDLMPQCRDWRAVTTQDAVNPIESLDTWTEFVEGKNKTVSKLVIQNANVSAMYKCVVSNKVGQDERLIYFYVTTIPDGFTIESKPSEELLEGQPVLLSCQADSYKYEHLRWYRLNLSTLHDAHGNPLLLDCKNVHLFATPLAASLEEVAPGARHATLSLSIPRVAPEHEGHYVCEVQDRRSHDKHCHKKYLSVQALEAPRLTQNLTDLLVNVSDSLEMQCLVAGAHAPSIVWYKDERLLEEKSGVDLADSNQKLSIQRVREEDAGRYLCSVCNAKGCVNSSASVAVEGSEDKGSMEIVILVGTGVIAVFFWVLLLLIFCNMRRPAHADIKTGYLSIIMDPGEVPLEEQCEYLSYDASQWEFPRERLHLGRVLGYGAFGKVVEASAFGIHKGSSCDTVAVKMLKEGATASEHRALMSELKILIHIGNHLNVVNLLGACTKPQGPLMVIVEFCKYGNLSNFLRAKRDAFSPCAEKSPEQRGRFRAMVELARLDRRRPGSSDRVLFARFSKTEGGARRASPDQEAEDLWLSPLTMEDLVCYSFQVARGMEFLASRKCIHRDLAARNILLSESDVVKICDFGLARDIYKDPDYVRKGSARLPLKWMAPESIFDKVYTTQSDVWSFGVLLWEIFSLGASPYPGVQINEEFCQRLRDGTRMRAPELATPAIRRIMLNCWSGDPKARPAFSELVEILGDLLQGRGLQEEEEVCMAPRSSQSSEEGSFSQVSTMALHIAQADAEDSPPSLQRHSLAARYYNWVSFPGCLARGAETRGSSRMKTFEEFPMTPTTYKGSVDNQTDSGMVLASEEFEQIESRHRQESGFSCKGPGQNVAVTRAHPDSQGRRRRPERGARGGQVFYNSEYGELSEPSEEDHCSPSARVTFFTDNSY

[7] = biological target: Vascular endothelial growth factor receptor 2 (Homo sapiens, UniProt P35968); assay: Inhibition of human recombinant VEGFR2 expressed in Sf9 cells after 60 mins
Chain of Vascular endothelial growth factor receptor 2 (P35968 whole entry): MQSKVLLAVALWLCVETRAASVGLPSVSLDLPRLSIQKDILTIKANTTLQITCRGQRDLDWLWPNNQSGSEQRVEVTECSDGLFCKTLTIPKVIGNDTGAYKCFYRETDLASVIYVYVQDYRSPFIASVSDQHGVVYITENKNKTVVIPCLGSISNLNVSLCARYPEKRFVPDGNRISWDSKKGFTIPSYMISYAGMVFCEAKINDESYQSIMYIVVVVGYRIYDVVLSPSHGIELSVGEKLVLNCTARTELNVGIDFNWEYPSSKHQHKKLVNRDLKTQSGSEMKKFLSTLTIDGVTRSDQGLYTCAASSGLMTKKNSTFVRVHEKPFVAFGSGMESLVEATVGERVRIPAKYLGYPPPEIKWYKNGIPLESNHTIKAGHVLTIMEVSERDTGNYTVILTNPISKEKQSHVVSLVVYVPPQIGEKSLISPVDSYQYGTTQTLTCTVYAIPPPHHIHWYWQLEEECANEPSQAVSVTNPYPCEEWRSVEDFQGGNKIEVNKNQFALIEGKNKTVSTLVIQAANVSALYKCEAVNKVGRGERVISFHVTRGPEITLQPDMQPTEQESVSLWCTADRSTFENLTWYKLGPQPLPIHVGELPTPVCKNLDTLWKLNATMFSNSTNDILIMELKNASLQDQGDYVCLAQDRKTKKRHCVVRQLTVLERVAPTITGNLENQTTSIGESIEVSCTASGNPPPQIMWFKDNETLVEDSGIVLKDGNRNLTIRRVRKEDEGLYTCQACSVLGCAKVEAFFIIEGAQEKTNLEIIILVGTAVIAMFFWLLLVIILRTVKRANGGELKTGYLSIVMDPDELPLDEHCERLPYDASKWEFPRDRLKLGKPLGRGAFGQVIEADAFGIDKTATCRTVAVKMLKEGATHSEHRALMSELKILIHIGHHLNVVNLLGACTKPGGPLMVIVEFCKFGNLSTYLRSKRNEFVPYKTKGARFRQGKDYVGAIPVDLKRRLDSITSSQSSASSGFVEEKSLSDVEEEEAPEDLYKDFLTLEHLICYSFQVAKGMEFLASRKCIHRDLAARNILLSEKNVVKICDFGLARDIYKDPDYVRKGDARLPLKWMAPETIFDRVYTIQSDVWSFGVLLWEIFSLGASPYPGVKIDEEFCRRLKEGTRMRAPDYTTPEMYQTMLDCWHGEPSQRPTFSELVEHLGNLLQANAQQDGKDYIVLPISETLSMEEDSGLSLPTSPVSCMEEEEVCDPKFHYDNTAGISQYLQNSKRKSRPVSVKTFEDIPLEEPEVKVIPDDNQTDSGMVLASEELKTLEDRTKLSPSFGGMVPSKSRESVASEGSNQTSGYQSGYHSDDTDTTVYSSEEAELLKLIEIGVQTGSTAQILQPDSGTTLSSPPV

[8] = biological target: Dual specificity mitogen-activated protein kinase kinase 1 (Homo sapiens, UniProt Q02750); assay: Inhibition of human recombinant MEK1 expressed in insect cells after 20 mins
Chain of Dual specificity mitogen-activated protein kinase kinase 1 (Q02750 whole entry): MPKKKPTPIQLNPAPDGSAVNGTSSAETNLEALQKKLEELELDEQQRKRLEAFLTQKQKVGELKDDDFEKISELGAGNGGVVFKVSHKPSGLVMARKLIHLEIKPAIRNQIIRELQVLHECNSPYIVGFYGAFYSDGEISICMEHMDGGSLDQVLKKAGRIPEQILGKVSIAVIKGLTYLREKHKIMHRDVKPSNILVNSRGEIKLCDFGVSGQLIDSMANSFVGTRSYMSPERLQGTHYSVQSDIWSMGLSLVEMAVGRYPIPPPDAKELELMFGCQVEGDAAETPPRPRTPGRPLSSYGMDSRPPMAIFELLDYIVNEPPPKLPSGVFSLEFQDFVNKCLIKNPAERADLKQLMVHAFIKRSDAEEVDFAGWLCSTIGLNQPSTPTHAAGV

Jurkat [9] = assay: Antiproliferative activity against human Jurkat cells after 24 hrs by celltiter glo assay
Jurkat [10] = assay: Antiproliferative activity against human Jurkat cells after 48 hrs by celltiter glo assay
HUVEC [11] = assay: Antiangiogenic activity against HUVEC co-cultured with vascular smooth muscle cells assessed as inhibition of organotypic capillary network formation at 33 uM after 72 hrs; format: functional, cell-based; details: Homo sapiens
HUVEC [12] = assay: Antiangiogenic activity against HUVEC co-cultured with vascular smooth muscle cells assessed as inhibition of tube formation at 33 uM after 72 hrs; format: functional, cell-based; details: Homo sapiens
[13] = biological target: Mitogen-activated protein kinase 3 (Homo sapiens, UniProt P27361); assay: Inhibition of human recombinant ERK1 expressed in E.coli after 30 mins
Chain of Mitogen-activated protein kinase 3 (P27361 whole entry): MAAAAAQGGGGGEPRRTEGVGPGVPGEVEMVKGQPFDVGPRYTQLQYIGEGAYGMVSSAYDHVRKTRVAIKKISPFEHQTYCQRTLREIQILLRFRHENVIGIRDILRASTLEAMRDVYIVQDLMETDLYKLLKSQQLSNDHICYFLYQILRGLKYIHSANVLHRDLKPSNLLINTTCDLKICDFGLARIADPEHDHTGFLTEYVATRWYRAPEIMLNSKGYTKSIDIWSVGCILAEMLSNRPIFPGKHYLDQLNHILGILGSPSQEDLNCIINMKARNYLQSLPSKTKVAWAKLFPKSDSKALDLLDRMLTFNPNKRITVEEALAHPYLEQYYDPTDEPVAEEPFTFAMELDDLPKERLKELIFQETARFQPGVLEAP

[14] = biological target: Mitogen-activated protein kinase 1 (Homo sapiens, UniProt P28482); assay: Inhibition of human recombinant ERK2 expressed in E.coli after 15 mins
Chain of Mitogen-activated protein kinase 1 (P28482 whole entry): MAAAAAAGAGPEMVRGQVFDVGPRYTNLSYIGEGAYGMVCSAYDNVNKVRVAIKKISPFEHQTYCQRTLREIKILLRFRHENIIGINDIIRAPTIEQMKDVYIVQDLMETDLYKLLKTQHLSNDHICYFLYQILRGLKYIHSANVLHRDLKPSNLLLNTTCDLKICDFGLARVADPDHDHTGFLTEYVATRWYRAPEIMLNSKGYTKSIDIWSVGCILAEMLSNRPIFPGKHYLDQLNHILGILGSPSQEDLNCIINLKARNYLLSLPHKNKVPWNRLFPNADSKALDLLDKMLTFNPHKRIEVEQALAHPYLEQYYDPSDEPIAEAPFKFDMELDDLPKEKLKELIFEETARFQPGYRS

[15] = biological target: Glycogen synthase kinase-3 alpha (Homo sapiens, UniProt P49840); assay: Inhibition of human recombinant GSK3alpha in cell free system after 60 mins
HUVEC [16] = assay: Antiangiogenic activity against HUVEC co-cultured with vascular smooth muscle cells assessed as inhibition of organotypic capillary network formation at 11 uM after 72 hrs; format: functional, cell-based; details: Homo sapiens
HUVEC [17] = assay: Antiangiogenic activity against HUVEC co-cultured with vascular smooth muscle cells assessed as inhibition of tube formation at 11 uM after 72 hrs; format: functional, cell-based; details: Homo sapiens
[18] = biological target: Glycogen synthase kinase-3 beta (Homo sapiens, UniProt P49841); assay: Inhibition of human recombinant GSK3-beta in cell free system after 90 mins
HUVEC [19] = assay: Antiangiogenic activity against HUVEC co-cultured with vascular smooth muscle cells assessed as inhibition of organotypic capillary network formation upto 100 uM after 72 hrs; format: functional, cell-based; details: Homo sapiens
HUVEC [20] = assay: Antiangiogenic activity against HUVEC co-cultured with vascular smooth muscle cells assessed as inhibition of tube formation upto 100 uM after 72 hrs; format: functional, cell-based; details: Homo sapiens
[21] = biological target: Mitogen-activated protein kinase 7 (Homo sapiens, UniProt Q13164); assay: Inhibition of human recombinant ERK5 in cell free system after 90 mins

Question: With `COc1cc(O)c2c(c1)/C=C\CCCC(=O)/C=C/C[C@H](C)OC2=O` as the compound, how does the IC50 [1] read?
Answer: 0.45 µM

Question: And the IC50 [2]?
Answer: > 100 µM

Question: What about the IC50 [3] of the same compound?
Answer: 1.4 µM

Question: What about the IC50 [4] of the same compound?
Answer: 15 µM

Question: What about the IC50 [5] of the same compound?
Answer: 0.59 µM

Question: And the IC50 [6]?
Answer: 1.6 µM

Question: And the IC50 [7]?
Answer: 2.3 µM

Question: What about the IC50 [8] of the same compound?
Answer: > 100 µM

Question: And the IC50 (Jurkat [9])?
Answer: 19.5 µM

Question: What about the IC50 (Jurkat [10]) of the same compound?
Answer: 15.4 µM

Question: Which results are given for `COc1cc(O)c2c(c1)/C=C/CCCC(O)C[C@H](Cl)C[C@H](C)OC2=O` (some centres not stated)?
Answer: Activity (HUVEC [11]): Active; Activity (HUVEC [12]): Active

Question: For `COc1cc(O)c2c(c1)/C=C\CCCC(=O)C[C@H](Cl)C[C@H](C)OC2=O`, which IC50 [3] is on record?
Answer: 100 µM

Question: What about the IC50 [6] of the same compound?
Answer: > 100 µM

Question: What about the IC50 [7] of the same compound?
Answer: 82 µM

Question: What about the IC50 (Jurkat [9]) of the same compound?
Answer: 9.5 µM

Question: What about the IC50 (Jurkat [10]) of the same compound?
Answer: 8.8 µM

Question: What does the source list for `COc1cc(O)c2c(c1)CCCCCC(=O)/C=C/C[C@H](C)OC2=O`?
Answer: IC50 [1]: 0.089 µM; IC50 [3]: 1.3 µM; IC50 [13]: > 100 µM; IC50 [14]: > 100 µM; IC50 [4]: 33 µM; IC50 [5]: 0.33 µM; IC50 [6]: 0.72 µM; IC50 [15]: > 100 µM; IC50 [7]: 0.31 µM; IC50 [8]: 12 µM; IC50 (Jurkat [9]): 13 µM; IC50 (Jurkat [10]): 9.7 µM; Activity (HUVEC [16]): Active; Activity (HUVEC [17]): Active

Question: For `COc1cc(O)c2c(c1)/C=C/CCCC(=O)/C=C/C[C@H](C)OC2=O`, which IC50 [1] is on record?
Answer: 0.027 µM

Question: What about the IC50 [2] of the same compound?
Answer: 9.2 µM

Question: And the IC50 [3]?
Answer: 1.3 µM

Question: What about the IC50 [13] of the same compound?
Answer: > 100 µM

Question: And the IC50 [14]?
Answer: > 100 µM

Question: What about the IC50 [4] of the same compound?
Answer: 51 µM

Question: And the IC50 [5]?
Answer: 0.33 µM

Question: What about the IC50 [6] of the same compound?
Answer: 1.4 µM

Question: What about the IC50 [15] of the same compound?
Answer: > 100 µM

Question: And the IC50 [18]?
Answer: > 100 µM

Question: What about the IC50 [7] of the same compound?
Answer: 1 µM

Question: What about the IC50 [8] of the same compound?
Answer: 22 µM

Question: And the IC50 (Jurkat [9])?
Answer: 11 µM

Question: And the IC50 (Jurkat [10])?
Answer: 8.9 µM

Question: For `COc1cc(O)c2c(c1)/C=C\CCCC(=O)C[C@H](Br)C[C@H](C)OC2=O`, which IC50 [3] is on record?
Answer: 81 µM

Question: What about the IC50 [7] of the same compound?
Answer: 24 µM

Question: What about the IC50 (Jurkat [9]) of the same compound?
Answer: 6.1 µM

Question: What about the IC50 (Jurkat [10]) of the same compound?
Answer: 7.5 µM

Question: How did the IC50 [3] turn out when `COc1cc(O)c2c(c1)/C=C/CCCC(=O)C[C@H](Cl)C[C@H](C)OC2=O` was run?
Answer: > 100 µM

Question: And the IC50 [6]?
Answer: > 100 µM

Question: And the IC50 (Jurkat [9])?
Answer: 10.9 µM

Question: And the IC50 (Jurkat [10])?
Answer: 9.2 µM

Question: `COc1cc(O)c2c(c1)CCCCCC(=O)/C=C\C[C@H](C)OC2=O` was tested. Which IC50 [1] did it give?
Answer: 0.44 µM

Question: And the IC50 [3]?
Answer: 4.1 µM

Question: What about the IC50 [4] of the same compound?
Answer: > 100 µM

Question: And the IC50 [5]?
Answer: 0.85 µM

Question: And the IC50 [6]?
Answer: 1.2 µM

Question: And the IC50 [7]?
Answer: 0.54 µM

Question: And the IC50 [8]?
Answer: 17 µM

Question: And the IC50 (Jurkat [9])?
Answer: 26 µM

Question: And the IC50 (Jurkat [10])?
Answer: 11 µM

Question: With `COc1cc(O)c2c(c1)/C=C/CCCC(=O)C[C@H](Br)C[C@H](C)OC2=O` as the compound, how does the IC50 [2] read?
Answer: > 100 µM

Question: What about the IC50 [3] of the same compound?
Answer: 2.8 µM

Question: And the IC50 [7]?
Answer: > 100 µM

Question: What about the IC50 (Jurkat [9]) of the same compound?
Answer: 11.7 µM

Question: What about the IC50 (Jurkat [10]) of the same compound?
Answer: 9.7 µM

Question: What does the source list for `COc1cc(O)c2c(c1)CCCCCC(=O)CCC[C@H](C)OC2=O`?
Answer: Activity (HUVEC [19]): inactive; Activity (HUVEC [20]): inactive

Question: For `COc1cc(O)c2c(c1)CCCCCC(=O)C[C@H](Cl)C[C@H](C)OC2=O`, which IC50 [3] is on record?
Answer: 47 µM

Question: And the IC50 [7]?
Answer: 93 µM

Question: What about the IC50 (Jurkat [9]) of the same compound?
Answer: 10.6 µM

Question: And the IC50 (Jurkat [10])?
Answer: 8.4 µM

Question: How did the IC50 [1] turn out when `COc1cc(O)c2c(c1)/C=C/C[C@@H](O)[C@H](O)C(=O)/C=C\C[C@H](C)OC2=O` was run?
Answer: 0.00024 µM

Question: What about the IC50 [3] of the same compound?
Answer: 0.0096 µM

Question: What about the IC50 [13] of the same compound?
Answer: 1.4 µM

Question: And the IC50 [21]?
Answer: > 100 µM

Question: And the IC50 [14]?
Answer: 1.3 µM

Question: And the IC50 [4]?
Answer: 0.012 µM

Question: And the IC50 [5]?
Answer: 0.0049 µM

Question: And the IC50 [6]?
Answer: 0.0005 µM

Question: What about the IC50 [15] of the same compound?
Answer: 1.9 µM

Question: And the IC50 [18]?
Answer: 18 µM

Question: What about the IC50 [7] of the same compound?
Answer: 0.00049 µM

Question: And the IC50 [8]?
Answer: 0.002 µM

Question: What about the IC50 (Jurkat [9]) of the same compound?
Answer: 7 µM

Question: What about the IC50 (Jurkat [10]) of the same compound?
Answer: 5.5 µM

Question: How did the IC50 [3] turn out when `COc1cc(O)c2c(c1)CCCCCC(=O)C[C@H](Br)C[C@H](C)OC2=O` was run?
Answer: 11 µM

Question: What about the IC50 [4] of the same compound?
Answer: > 100 µM

Question: What about the IC50 [7] of the same compound?
Answer: 4.3 µM

Question: What about the IC50 (Jurkat [9]) of the same compound?
Answer: 11.4 µM

Question: What about the IC50 (Jurkat [10]) of the same compound?
Answer: 9.7 µM
